Reference: paper PMC8041284, “Tunable Methacrylamides for Covalent Ligand Directed Release Chemistry” (Journal of the American Chemical Society, 2021)
Where two headings read alike, the source gives them in different places.

Biological target: BTK (Homo sapiens, UniProt Q06187)
Experiment: biochemical
[1] = read-out: BTK inhibition (%), 0.75 uM BTK, […] probe 3l, 15 min preincubation

Sequence of BTK (Q06187 402-655 limits assumed): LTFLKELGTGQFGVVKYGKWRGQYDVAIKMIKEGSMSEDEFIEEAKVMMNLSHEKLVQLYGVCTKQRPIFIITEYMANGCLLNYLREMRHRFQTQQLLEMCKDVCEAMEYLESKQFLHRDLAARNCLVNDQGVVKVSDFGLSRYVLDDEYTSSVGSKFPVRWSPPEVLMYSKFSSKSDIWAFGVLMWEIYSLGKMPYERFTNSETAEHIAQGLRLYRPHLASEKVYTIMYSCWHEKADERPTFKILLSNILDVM

inhibition at 10 µM [1]	SMILES	inhibition at 10 µM (read-out: BTK inhibition (%))
-5.4%	NC(=O)[C@@H]1CCCN1C(=O)[C@H](Cc1cnc[nH]1)NC(=O)[C@@H]1CCC(=O)N1 [PCM-0214836]	–
0.8%	CC1(C)O[C@H]1COc1c2ccoc2cc2oc(=O)ccc12 [PCM-0216499]	–
17.9%	c1ccc([C@H]2CN3CCSC3=N2)cc1 [PCM-0065508]	–
-8.3%	CCCCCCCC(=O)CCc1ccc(O)c(OC)c1 [PCM-0216195]	–
18.5%	C=C1C2CCC(C2)C1(C)C (stereo not drawn) [PCM-0216213]	–
-9.3%	C=CC(C)(O)CCC=C(C)C (stereo not drawn) [PCM-0091203]	–
31.7%	CCOC(=O)c1ccc(NC2CCCCC2)c(N)c1 [PCM-0095725]	–
-3.1%	COc1ccc(C[C@H](N)C(=O)N[C@H]2[C@@H](O)[C@H](n3cnc4c(N(C)C)ncnc43)O[C@@H]2CO)cc1 [PCM-0215332]	–
-6.9%	Cn1cnc2c(F)c(Nc3ccc(Br)cc3Cl)c(C(=O)NOCCO)cc21 [PCM-0094893]	–
–	C/C(=C\c1csc(C)n1)[C@@H]1C[C@@H]2O[C@@H]2CCC[C@H](C)[C@H](O)[C@@H](C)C(=O)C(C)(C)[C@@H](O)CC(=O)O1 [PCM-0095086]	1.6%
72.4%	COc1ccc(-c2cc(=O)c3c(O)c(OC)c(O)cc3o2)cc1OC [PCM-0214985]	–
-63.8%	COc1ccc(CNc2nc(N3CCC[C@H]3CO)ncc2C(=O)NCc2ncccn2)cc1Cl [PCM-0095565]	–
-16.2%	CO/N=C(\C(=O)N[C@@H]1C(=O)N2C(C(=O)O)=C(CSc3nc(=O)c(O)nn3C)CS[C@H]12)c1csc(N)n1 [PCM-0215203]	–
-10.3%	CC(C)(C(=O)O)c1ccc(C(O)CCCN2CCC(C(O)(c3ccccc3)c3ccccc3)CC2)cc1 (stereo not drawn) [PCM-0065056]	–
-22.1%	CC(=O)N[C@@H]1[C@@H](O[C@@H]2O[C@H](C(=O)O)[C@@H](O)[C@H](O)[C@H]2O)[C@@H](O)[C@@H](OS(=O)(=O)O)O[C@H]1O [PCM-0215884]	–
4.3%	CN[C@H](CC(C)C)C(=O)N[C@H]1C(=O)N[C@@H](CC(N)=O)C(=O)N[C@H]2C(=O)N[C@H]3C(=O)N[C@H](C(=O)N[C@H](C(=O)O)c4cc(O)cc(O)c4-c4cc3ccc4O)[C@H](O)c3ccc(c(Cl)c3)Oc3cc2cc(c3O[C@@H]2O[C@H](CO)[C@@H](O)[C@H](O)[C@H]2O[C@H]2C[C@](C)(N)[C@H](O)[C@H](C)O2)Oc2ccc(cc2Cl)[C@H]1O [PCM-0064980]	–
2.3%	CC1CCC(C(=O)N(c2cc(C#CC(C)(C)C)sc2C(=O)O)C2CCC(O)CC2)CC1 (stereo not drawn) [PCM-0095160]	–
-14.8%	NS(=O)(=O)Cc1noc2ccccc12 [PCM-0214625]	–
-4.6%	CC1(C)CC[C@]2(C(=O)O)CCC3=C([C@@H](CCl)C[C@@H]4[C@@]5(C)C[C@H](O)[C@H](O)[C@@](C)(C(=O)O)[C@@H]5CC[C@@]34C)[C@@H]2C1 [PCM-0216388]	–
35.5%	O=C(O)/C(S)=C/c1c[nH]c2ccc(F)cc12 [PCM-0215343]	–
86.9%	COc1ccc2c(c1)[C@]1(C[C@H]1c1ccc3c(/C=C/c4ccc(CN5C[C@@H](C)O[C@@H](C)C5)cc4)n[nH]c3c1)C(=O)N2 [PCM-0215815]	–
-2.3%	CO/N=C(\C(=O)N[C@@H]1C(=O)N2C(C(=O)O)=C(CSc3nc(C)c(CC(=O)O)s3)CS[C@H]12)c1csc(N)n1 [PCM-0215155]	–
47.6%	CC(C)(C)n1nc(-c2ccc(Cl)cc2)c2c(N)ncnc21 [PCM-0095568]	–

inhibition at 10 µM [1]	SMILES	inhibition at 10 µM (read-out: BTK inhibition (%))
27%	C[C@@H](C(=O)Nc1ccc(Cl)cc1)C1CCC(c2ccnc3ccc(F)cc23)CC1 (stereo partly drawn) [PCM-0216246]	–
-8.5%	COc1ccc(-c2oc3c(CC=C(C)C)c(O[C@@H]4O[C@H](CO)[C@@H](O)[C@H](O)[C@H]4O)cc(O)c3c(=O)c2O[C@@H]2O[C@@H](C)[C@H](O)[C@@H](O)[C@H]2O[C@@H]2OC[C@@H](O)[C@H](O)[C@H]2O)cc1 [PCM-0216511]	–
0.7%	CC(C)(CCCCCC(O)CCCCCC(C)(C)C(=O)O)C(=O)O [PCM-0215634]	–
-2.3%	Cc1cc(C)cc(NC(=O)Cc2ccc(OC(C)(C)C(=O)O)cc2)c1 [PCM-0214786]	–
19.3%	CN1CCN(c2ccc(Nc3ncc4cc(C#N)c(=O)n(C5CCCC5)c4n3)cc2)CC1 [PCM-0215612]	–
18.6%	O=C1c2ccccc2-c2n[nH]c3cccc1c23 [PCM-0012406]	–
-9.3%	O=C1C[C@@H](c2ccc(O)cc2)Oc2cc(O)ccc21 [PCM-0214979]	–
-8.5%	O=C(O)C(Cl)Cl [PCM-0215858]	–
-2.1%	CN1CCN(C(=O)c2cc3cc(Cl)ccc3[nH]2)CC1 [PCM-0095374]	–
3.1%	CC(=O)OCC1=C(C(=O)O)N2C(=O)[C@@H](NC(=O)CSc3ccncc3)[C@H]2SC1 [PCM-0215254]	–
-8.6%	CC(CNC(=O)c1cccnc1)NC(=O)c1cccnc1 (stereo not drawn) [PCM-0214789]	–
5.1%	CC(=O)OC(C)C(C)C(=O)OC[C@@]12[C@H]3C[C@]4(C)C(=CC[C@@H]5[C@@]6(C)CC[C@H](O[C@@H]7O[C@H](C(=O)O)[C@@H](O[C@@H]8O[C@H](CO)[C@@H](O)[C@H](O)[C@H]8O)[C@H](O)[C@H]7O[C@@H]7OC[C@@H](O)[C@H](O)[C@H]7O)[C@@](C)(CO)[C@@H]6CC[C@]54C)[C@@H]1CC(C)(C)[C@H](O3)[C@@H]2O (stereo partly drawn) [PCM-0215924]	–
115%	C=CC(=O)Nc1cccc(Nc2nc(Nc3ccc(Oc4ccnc(C(=O)NC)c4)cc3)ncc2F)c1 [PCM-0215277]	–
7.6%	Cn1c(=O)c(F)c(Nc2ccc(I)cc2F)c2c(=O)n(C[C@@H](O)CO)cnc21 [PCM-0095463]	–
10.9%	CCCCNc1ccc(C(=O)OCCN(C)C)cc1 [PCM-0064772]	–
75.7%	C[n+]1cc2c3c(ccc2c2ccc4cc5c(cc4c21)OCO5)OCO3 [PCM-0065605]	–
-11.1%	Cn1cc(C[C@@H](N)C(=O)O)c2ccccc21 [PCM-0215432]	–
8.5%	CCOC(=O)N1CCN(c2ccc(OC[C@H]3CO[C@](Cn4ccnc4)(c4ccc(Cl)cc4Cl)O3)cc2)CC1 [PCM-0216072]	–
4.6%	COc1cc2c(cc1OC)CN(CCc1ccc(NC(=O)c3cc(OC)c(OC)cc3NC(=O)c3cnc4ccccc4c3)cc1)CC2 [PCM-0095616]	–
–	C=C1CC[C@H]2[C@@H](/C=C(/C)C(=O)[C@@]3(O)C[C@H](C)[C@H](O)[C@@H]3[C@H]1O)C2(C)C [PCM-0216650]	-9.3%
2.3%	CCC(C)SSc1ncc[nH]1 (stereo not drawn) [PCM-0215586]	–
6.2%	C[C@H]1[C@H](C)CC[C@]2(C(=O)O)CC[C@]3(C)C(=CC[C@@H]4[C@@]5(C)C[C@@H](O)[C@H](O)C(C)(C)[C@@H]5CC[C@]43C)[C@H]12 [PCM-0216596]	–
-34.7%	O=c1cc(CN2CCOCC2)occ1OCCCCCSc1ccnc2cc(C(F)(F)F)ccc12 [PCM-0095730]	–

inhibition at 10 µM [1]	SMILES	inhibition at 10 µM (read-out: BTK inhibition (%))
-19.5%	Clc1cccc(Cl)c1NC1=NCCN1 [PCM-0064514]	–
-9.3%	CCCCCCCC(=O)N[C@H](CN1CCCC1)[C@H](O)c1ccc2c(c1)OCCO2 [PCM-0215629]	–
7%	C[C@H]1[C@H](C)CC[C@]2(C(=O)O)CC[C@]3(C)C(=CC[C@@H]4[C@@]5(C)CCC(=O)C(C)(C)[C@@H]5CC[C@]43C)[C@H]12 [PCM-0215048]	–
-10%	NC(=O)/C(=C/n1cnc(-c2cc(C(F)(F)F)cc(C(F)(F)F)c2)n1)c1cncnc1 [PCM-0215821]	–
5.5%	CN(C)Cc1cccc(N=C(c2ccccc2)c2c(O)[nH]c3cc(C(N)=O)ccc23)c1 [PCM-0095090]	–
-9.3%	C=C1[C@H](OC(=O)/C=C(\C)CC)C[C@@H](C(C)C)[C@@H]2[C@@H]([C@@H](C)OC(C)=O)C(=O)C[C@@H]12 [PCM-0216448]	–
9%	Cc1cc2c(F)c(Oc3ncnn4cc(OC[C@@H](C)O)c(C)c34)ccc2[nH]1 [PCM-0095049]	–
0%	CCCCC(CC)COC(=O)C(C#N)=C(c1ccccc1)c1ccccc1 (stereo not drawn) [PCM-0215898]	–
1.6%	CC1(C)C2CCC1(C)C(O)C2 (stereo not drawn) [PCM-0214868]	–
95%	C=CC(=O)N1C[C@H](Nc2ncnc3[nH]ccc23)CC[C@@H]1C [PCM-0215972]	–
1.5%	CC1(C)Cc2c(sc(NC(=O)c3ccn[nH]3)c2C(N)=O)C(C)(C)O1 [PCM-0216042]	–
12.8%	CN(C)CCN(Cc1ccccc1)c1ccccn1 [PCM-0086274]	–
20.1%	O=C(c1ccc(Cl)cc1)N(Cc1ccccc1)C1CCCCC1 [PCM-0215646]	–
-5.4%	Nc1ccc(F)cc1NC(=O)c1ccc(CNC(=O)/C=C/c2cccnc2)cc1 [PCM-0215868]	–
-14.8%	CN(C)CCCC1(c2ccc(F)cc2)OCc2cc(C#N)ccc21 (stereo not drawn) [PCM-0064474]	–
-18.7%	Cn1nc(C(C)(C)C)cc1C(=O)N[C@@H](Cc1cccc(Cl)c1)C(=O)NCC#N [PCM-0095472]	–
6.2%	COc1ccccc1S(=O)(=O)Nc1ccc2c(c1)CN(C)C(=O)N2 [PCM-0094933]	–
29.3%	COc1cc(-c2cc(-c3cccc(O)c3)cnc2N)cc(OC)c1OC [PCM-0095813]	–
7.6%	Cc1ccc([C@@H]2O[C@H](CO)[C@@H](O)[C@H](O)[C@H]2O)cc1Cc1ccc(-c2ccc(F)cc2)s1 [PCM-0095519]	–
9.4%	NC(N)=NCCC[C@H](N)C(=O)NCC(=O)N[C@@H](CC(=O)O)C(=O)O [PCM-0215176]	–
-4.3%	O=C(CO)[C@@H](O)[C@H](O)[C@@H](O)CO [PCM-0216101]	–
6.9%	OCC1(O)OC[C@@H](O)[C@H](O)[C@@H]1O (stereo partly drawn) [PCM-0216581]	–

SMILES	inhibition at 10 µM [1]	inhibition at 10 µM (read-out: BTK inhibition (%))
O=C1CC[C@@]2(O)[C@H]3Cc4ccc(O)c5c4[C@@]2(CCN3CC2CC2)[C@H]1O5 [PCM-0085829]	-24.1%	–
CCc1c2c(nc3ccccc13)-c1cc3c(c(=O)n1C2)COC(=O)[C@]3(O)CC [PCM-0215967]	-20.8%	–
C=CC(=O)N1CC/C(=C\c2ccc(F)c([N+](=O)[O-])c2)C(=O)/C(=C/c2ccc(F)c([N+](=O)[O-])c2)C1 [PCM-0215820]	31.7%	–
C=C[C@H]1CN2CC[C@H]1C[C@@H]2[C@@H](O)c1ccnc2ccccc12 [PCM-0214935]	-17.1%	–
